Earlier results, collected in patent publication US20160376245A1, “IMPURITY OF FAMOTIDINE” (GAVIS PHARMACEUTICALS, priority 2015, published 2016).
Like-named read-outs stand apart in the source and are kept apart here.

solubility (in ethanol): practically insoluble | solubility (in glacial acetic acid): freely soluble | solubility (in methanol): slightly soluble | solubility (in water): very slightly soluble
SMILES: NC(N)=Nc1nc(CSCCC(N)=NS(N)(=O)=O)cs1 [Famotidine, N-(aminosulfonyl)-3-[[[2-[(diaminomethylene)amino]-4-thiazolyl]methyl]thio] propanimidamide]
